In US11214803B2, “Modulators of YAP1 expression” (Ionis Pharmaceuticals, Inc., priority 2019, dated 2022):
Strand notation (5' to 3'): a small letter for the sugar, then the base; units joined by * are phosphorothioate-linked, units joined directly phosphodiester-linked; [ ] holds rarer units or linkages, { } end groups; capitals alone tell only the bases. k = constrained ethyl (cEt); [5mC] = 5-methylcytosine; d = 2'-deoxy (DNA)

These substances were tested on Yap1 mRNA (assay: Antisense inhibition of human Yap1 in A-431 cells by cEt gapmers, single dose (Example 2, RTS4814)). Conditions: A-431 cells, 5,000 cells per well, free uptake, 2,000 nM modified oligonucleotide, approx. 48 hours, RTS4814, normalized to RIBOGREEN; Table 4; asterisk (*) = targets amplicon region of primer probe set.
Type: cell-based
In short: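 Single-dose knockdown screen of 3-10-3 cEt phosphorothioate gapmers at 2,000 nM added by free uptake to A-431 cells. After roughly 48 h, RNA was isolated and Yap1 transcript measured by RT-qPCR, with results given as % UTC.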

Substance | YAP1 (% UTC)
716535 (antisense k[5mC]*k[5mC]*kT*dG*dA*d[5mC]*dT*dG*dA*dA*dA*dA*dT*kA*kA*k[5mC]) [Compound 716535] | 86

Same assay, conditions: Table 5; A-431 cells, 5,000 cells per well, free uptake, 2,000 nM modified oligonucleotide, approx. 48 hours; RTS4814; normalized to RIBOGREEN; Yap1 mRNA relative to untreated control cells

Substance | YAP1 (% UTC)
716362 (kA*kG*kG*d[5mC]*dG*dG*d[5mC]*dT*dG*d[5mC]*d[5mC]*d[5mC]*dT*kT*kG*kG; antisense) [Compound 716362] | 94
716452 (kT*kT*kA*d[5mC]*d[5mC]*dA*dA*dA*dA*d[5mC]*dA*dA*d[5mC]*kT*kA*k[5mC]; antisense) [Compound 716452] | 98

Same assay, conditions: Table 6; A-431 cells, 5,000 cells per well, free uptake, 2,000 nM modified oligonucleotide, approx. 48 hours; RTS4814; normalized to RIBOGREEN; Yap1 mRNA relative to untreated control cells

Substance | YAP1 (% UTC)
716354 (kT*k[5mC]*kG*d[5mC]*dT*d[5mC]*dT*d[5mC]*dA*dG*dG*dG*d[5mC]*k[5mC]*kG*kG; antisense) [Compound 716354] | 114
716387 (kT*kA*kT*dG*dG*dT*dT*dT*dA*dT*dA*dT*dA*kG*kT*kA; antisense) [Compound 716387] | 33

Same assay, conditions: Table 19; A-431 cells, 5,000 cells per well, free uptake, 2,000 nM modified oligonucleotide, approx. 48 hours; RTS4814; normalized to RIBOGREEN; Yap1 mRNA as percent of untreated control

Substance | YAP1 (% UTC)
1074405 (antisense kG*k[5mC]*k[5mC]*dT*dG*dA*dA*dA*dA*d[5mC]*dT*dG*d[5mC]*kA*kA*k[5mC]) [Compound 1074405] | 27
1074661 (antisense kG*kA*kA*dT*dT*dT*d[5mC]*dA*dT*dT*dA*d[5mC]*dT*kA*k[5mC]*kT) [Compound 1074661] | 36
1074821 (kG*kA*kA*dA*dA*dG*dT*dG*dT*dT*dA*dA*dG*k[5mC]*kA*k[5mC]; antisense) [Compound 1074821] | 18
1076005 (kG*kT*kA*d[5mC]*dA*dA*dA*dA*dT*d[5mC]*dT*d[5mC]*d[5mC]*kA*kG*kG; antisense) [Compound 1076005] | 69
1074629 (antisense kG*kA*kG*dA*dT*dT*dT*dT*dA*dT*dG*d[5mC]*d[5mC]*kT*kG*kT) [Compound 1074629] | 3

Same assay, conditions: Table 20; Yap1 mRNA, percent of untreated control; 3-10-3 cEt gapmers targeting SEQ ID NO.: 1 and 2

Substance | YAP1 (% UTC)
1075526 (kT*kT*kT*dA*dA*dT*dT*dA*dA*dG*dG*dG*d[5mC]*k[5mC]*k[5mC]*kA; antisense) [Compound 1075526] | 110
1074150 (antisense kG*kG*k[5mC]*d[5mC]*dG*dA*dG*dG*dT*dG*dG*dA*dG*kA*kA*kG) [Compound 1074150] | 85
1075846 (kG*kA*kT*dT*dA*dA*dG*dA*dG*d[5mC]*d[5mC]*dT*dA*kT*k[5mC]*kT; antisense) [Compound 1075846] | 96

Same assay, conditions: Table 21; Yap1 mRNA, percent of untreated control; 3-10-3 cEt gapmers targeting SEQ ID NO.: 1 and 2

Substance | YAP1 (% UTC)
1075815 (kG*kT*kA*dT*dA*dA*dA*dG*d[5mC]*dA*dG*dG*dG*k[5mC]*kA*kT; antisense) [Compound 1075815] | 36
1074663 (antisense k[5mC]*kA*kT*dT*d[5mC]*dT*dA*dG*dG*dT*dA*dG*dA*kA*kT*kT) [Compound 1074663] | 79

Same assay, conditions: Table 22; Yap1 mRNA as percent of untreated control; 3-10-3 cEt gapmers; single dose

Substance | YAP1 (% UTC)
1075624 (kA*kT*k[5mC]*dT*dA*dT*dA*dA*d[5mC]*d[5mC]*d[5mC]*dT*dT*kA*kT*kT; antisense) [Compound 1075624] | 91
1076392 (kT*kA*kT*dT*dA*dA*dT*d[5mC]*dA*dA*dA*dT*dA*kG*kG*kG; antisense) [Compound 1076392] | 64

Same assay, conditions: Table 23; Yap1 mRNA as percent of untreated control; 3-10-3 cEt gapmers; single dose

Substance | YAP1 (% UTC)
1074985 (antisense kA*kA*kT*d[5mC]*dA*d[5mC]*d[5mC]*dT*dT*dT*dT*dA*dT*kT*kG*k[5mC]) [Compound 1074985] | 49
1076457 (antisense kG*kA*kA*d[5mC]*dT*dA*dT*dA*dA*dT*d[5mC]*dT*dT*kA*kT*kA) [Compound 1076457] | 74
1075145 (antisense kT*k[5mC]*k[5mC]*d[5mC]*dA*dA*dA*dA*dG*dG*dA*dG*dT*kA*kG*k[5mC]) [Compound 1075145] | 58
1075657 (kT*kA*kA*dA*dA*dA*dA*d[5mC]*dG*dG*dT*dT*dT*kT*kT*k[5mC]; antisense) [Compound 1075657] | 84
1075529 (kA*kA*kA*dT*d[5mC]*dG*dA*dA*dG*dG*dG*d[5mC]*dA*kA*kA*k[5mC]; antisense) [Compound 1075529] | 84

Same assay, conditions: Table 24; Yap1 mRNA as percent of untreated control; 3-10-3 cEt gapmers targeting SEQ ID NO.: 1, and 2

Substance | YAP1 (% UTC)
1076298 (kG*kT*kT*dA*dT*dA*dA*dA*dG*dA*d[5mC]*d[5mC]*d[5mC]*kA*kA*kT; antisense) [Compound 1076298] | 10
1075658 (kG*kT*kA*dA*dA*dA*dA*dA*d[5mC]*dG*dG*dT*dT*kT*kT*kT; antisense) [Compound 1075658] | 103
1075594 (kT*kG*kA*dG*dA*dA*dT*dA*dT*dT*d[5mC]*d[5mC]*dT*k[5mC]*k[5mC]*k[5mC]; antisense) [Compound 1075594] | 64
1074634 (antisense kG*k[5mC]*kT*dG*dA*dG*dG*d[5mC]*dT*dT*dT*dT*d[5mC]*kA*kT*kA) [Compound 1074634] | 55

Same assay, conditions: Table 25; Yap1 mRNA as percent of untreated control; 3-10-3 cEt gapmers targeting SEQ ID NO.: 1, and 2

Substance | YAP1 (% UTC)
1075787 (k[5mC]*kT*kT*dA*dA*dG*dG*dA*dT*dT*dG*dG*d[5mC]*kT*kA*kT; antisense) [Compound 1075787] | 28
1075915 (kA*kA*kT*dT*dT*dA*dG*dG*dA*dT*dG*d[5mC]*d[5mC]*kT*kT*kT; antisense) [Compound 1075915] | 16
1075115 (antisense kG*kT*kA*dT*dA*dG*d[5mC]*d[5mC]*dT*dT*dA*dT*dT*k[5mC]*kT*kT) [Compound 1075115] | 6
1076555 (antisense kT*kG*kG*dG*dA*dA*dT*dA*dG*dT*dA*d[5mC]*dA*k[5mC]*kA*kG) [Compound 1076555] | 19
1074155 (antisense k[5mC]*k[5mC]*k[5mC]*dG*dG*d[5mC]*dT*d[5mC]*d[5mC]*dA*d[5mC]*dG*dG*kG*k[5mC]*k[5mC]) [Compound 1074155] | 87

Same assay, conditions: Table 32; Yap1 mRNA, percent of untreated control; 3-10-3 cEt gapmers targeting SEQ ID NO.: 1, and 2

Substance | YAP1 (% UTC)
1074354 (antisense kG*kG*kA*d[5mC]*dA*d[5mC]*dT*dG*dT*dA*dG*d[5mC]*dT*kG*k[5mC]*kT) [compound 1074354] | 24
1075826 (kT*kA*kG*dG*dG*dA*dA*dA*dA*d[5mC]*d[5mC]*dA*dT*kA*kG*k[5mC]; antisense) [compound 1075826] | 23
1074802 (kG*kG*k[5mC]*dA*d[5mC]*dT*dA*d[5mC]*dA*dT*dT*dT*dA*kG*kA*kA; antisense) [compound 1074802] | 37
1074546 (k[5mC]*kA*k[5mC]*dT*d[5mC]*d[5mC]*d[5mC]*d[5mC]*dT*dA*dG*dG*d[5mC]*kA*k[5mC]*kT; antisense) [compound 1074546] | 33

Same assay, conditions: Table 33; Yap1 mRNA, percent of untreated control; 3-10-3 cEt gapmers targeting SEQ ID NO.: 1, and 2

Substance | YAP1 (% UTC)
1074835 (k[5mC]*kT*kT*dG*d[5mC]*dG*dA*dG*dG*dA*dT*dA*dA*kA*kA*kT; antisense) [compound 1074835] | 30
1075795 (kG*kT*kA*dA*dT*dT*dA*dT*dA*dT*dA*d[5mC]*d[5mC]*k[5mC]*kA*k[5mC]; antisense) [compound 1075795] | 66
1075187 (kG*k[5mC]*k[5mC]*d[5mC]*dA*dA*dG*dG*dA*dG*dG*dA*dA*kA*kT*k[5mC]; antisense) [compound 1075187] | 77

Same assay, conditions: Yap1 mRNA as percent of untreated control; A-431 cells; 3-10-3 cEt gapmers targeting SEQ ID NO.: 1, and 2; Table 30

Substance | YAP1 (% UTC)
1075760 (kG*kA*kG*dA*dA*dA*dA*dA*d[5mC]*dT*dA*d[5mC]*dG*kG*kA*kT; antisense) [compound 1075760] | 39
1075248 (kG*kT*kA*d[5mC]*dA*dA*dA*dA*dA*dG*d[5mC]*dG*dG*kT*k[5mC]*kG; antisense) [compound 1075248] | 64

Same assay, conditions: Yap1 mRNA as percent of untreated control; A-431 cells; 3-10-3 cEt gapmers targeting SEQ ID NO.: 1, and 2; Table 31

Substance | YAP1 (% UTC)
1075729 (kT*kA*kT*dT*dT*dA*dA*dA*dA*dA*dT*dA*dG*k[5mC]*kG*k[5mC]; antisense) [compound 1075729] | 88
1074993 (antisense kT*k[5mC]*kT*dA*dA*dT*d[5mC]*dA*dA*d[5mC]*dA*d[5mC]*dT*kG*kG*kA) [compound 1074993] | 65
1074545 (kA*k[5mC]*kT*d[5mC]*d[5mC]*d[5mC]*d[5mC]*dT*dA*dG*dG*d[5mC]*dA*k[5mC]*kT*kA; antisense) [compound 1074545] | 18
1075505 (kG*k[5mC]*kT*dA*dA*dA*dT*dT*dA*d[5mC]*dA*dG*dA*kG*kG*kT; antisense) [compound 1075505] | 18
1075569 (kG*kT*kA*dG*dA*dA*dA*dG*dG*d[5mC]*dA*dT*dT*kA*kG*kA; antisense) [compound 1075569] | 45
1076401 (antisense kT*k[5mC]*kT*dA*dA*dA*dG*dA*d[5mC]*dT*d[5mC]*dT*d[5mC]*kA*kT*kT) [compound 1076401] | 31
